Source: patent US8338420B1, “Treatment of Parkinson's disease and enhancement of dopamine signal using PDE 10 inhibitor” (Mitsubishi Tanabe Pharma Corporation, priority 2002, dated 2012)

Experiments:
[1] = molecular target: T1, PDE8 (PDE8A) (Homo sapiens, UniProt O60658); assay: PDE assay, recombinant human PDE8A; assay type: biochemical; settings: substrate about 4.8 nM [3H]-cAMP and 0.1 μM cAMP
T1 construct: His tag (hexahistidine, pcDNA4/HisMax) (N); made in house
Source text: Based on the information of cDNA sequence of human PDE7A (Genbank/EMBL Accession No. NM002603), a cDNA encoding human PDE7A was cloned by PCR method, according to a method described in Sasaki et al. (Sasaki et al., Biochem. Biophys. Res. Commun., vol. 271, pp. 575-583, 2000). Further, based on the information of cDNA sequence of human PDE8A (Genbank/EMBL Accession No. AF388183), a cDNA encoding human PDE8A was cloned by PCR method, according to a method described in Gamanuma et al. (Gamanuma et al., Cell Signal, 2003, vol. 15, pp. 565-574). Further, a cDNA encoding human PDE11A was obtained, according to a method reported in Yuasa et al. (Yuasa et al., J. Biol. Chem., vol. 275, pp. 31469-31479, 2000). Using these cDNAs, recombinant proteins of human PDE7A, human PDE8A, and human PDE11A were prepared as follows.
DNA fragments comprising a cDNA encoding human PDE7A, human PDE8A or human PDE11A were linked to pcDNA4/HisMax (available from Invitrogen), to give a vector plasmid for expression of human proteins, with a histidine tag peptide (hexahistidine), added to the N-terminus. COS-7 cells were transfected with these vector plasmids, and the cells were cultured in Dulbecco's modified Eagle medium containing 10% bovine fetal serum for about 24 hours. […]

[2] = Brain uptake (integration plot method, PS) and PDE10 binding occupancy in the brain; assay type: in vivo; settings: rat, 1 mg/kg, i.v.
Source text: Different from other tissue, the brain has the blood brain barrier (BBB) to restrict and regulate the movement of molecules between the blood and the brain. BBB consists of brain capillary endothelial cells. The brain capillary endothelial cells are connected through tight junction, and nutrients and drugs in the blood are required to pass transcellularly through the brain capillary endothelial cells. As a mechanism for the drugs to pass through the BBB, there are mentioned the following five routes; 1) passive diffusion, 2) carrier-mediated transport, 3) receptor-mediated transcytosis, 4) absorptive-mediated transcytosis and 5) active efflux transport by P-glycoprotein. The rate of the compound to pass through the BBB and enter the brain (PS) via one or plurals of these mechanisms can be measured by known in vivo experimental assays such as in situ brain perfusion, integration plot method, etc., or by the known in vitro experimental assays such as primary cultured brain capillary endothelial cells, or an established immortalized brain capillary endothelial cell line, etc. […]
Further, Compound A (1 mg/kg, i.v.) was intravenously administered to rat, and according to integration plot method, a rate (PS) was measured for Compound A to enter the brain by passing through the blood brain barrier (BBB), and occupancy of PDE10 binding in the brain was analyzed.

[3] = system: marmoset MPTP model; assay: Marmoset MPTP model, effect on bromocriptine efficacy; assay type: in vivo; settings: together with bromocriptine (0.3 mg/kg), versus vehicle with bromocriptine
Procedure: Using bromocriptine (bromocriptine mesilate) as a dopamine receptor agonist, effect of test compound on pharmaceutical effects caused by administration of dopamine receptor agonist, in marmoset MPTP model was tested as follows.
The same method was employed as in Example 6, except for using bromocriptine (bromocriptine mesilate) in place of L-dopa and benserazide.
Each test was performed with respect to the same individual sequentially, and intervals of 5 days or more were allowed between the tests. • test 1: vehicle • test 2: vehicle and bromocriptine mesilate • test 3: test compound (PDE10 inhibitor) and bromocriptine mesilate
[…] Further, as test compounds, compounds confirmed with PDE10 inhibitory activities were administered via saphenous vein, 90 minutes before administration of bromocriptine mesilate, under anesthesia by ketamine and isoflurane (In test 1 and test 2, only vehicle was administered in place of the test compound in the same manner).
Bromocriptine mesilate was suspended in 0.5% methylcellulose solution on the day of administration and used. Test compound (PDE10 inhibitor) was dissolved in a solvent 30 minutes before administration and used.
After administration of test compound (PDE10 inhibitor) (or vehicle) and bromocriptine mesilate, locomotor activity and motor disability score were evaluated for each individual, in the same manner as in Example 6. […]

T1 sequence (O60658 whole entry): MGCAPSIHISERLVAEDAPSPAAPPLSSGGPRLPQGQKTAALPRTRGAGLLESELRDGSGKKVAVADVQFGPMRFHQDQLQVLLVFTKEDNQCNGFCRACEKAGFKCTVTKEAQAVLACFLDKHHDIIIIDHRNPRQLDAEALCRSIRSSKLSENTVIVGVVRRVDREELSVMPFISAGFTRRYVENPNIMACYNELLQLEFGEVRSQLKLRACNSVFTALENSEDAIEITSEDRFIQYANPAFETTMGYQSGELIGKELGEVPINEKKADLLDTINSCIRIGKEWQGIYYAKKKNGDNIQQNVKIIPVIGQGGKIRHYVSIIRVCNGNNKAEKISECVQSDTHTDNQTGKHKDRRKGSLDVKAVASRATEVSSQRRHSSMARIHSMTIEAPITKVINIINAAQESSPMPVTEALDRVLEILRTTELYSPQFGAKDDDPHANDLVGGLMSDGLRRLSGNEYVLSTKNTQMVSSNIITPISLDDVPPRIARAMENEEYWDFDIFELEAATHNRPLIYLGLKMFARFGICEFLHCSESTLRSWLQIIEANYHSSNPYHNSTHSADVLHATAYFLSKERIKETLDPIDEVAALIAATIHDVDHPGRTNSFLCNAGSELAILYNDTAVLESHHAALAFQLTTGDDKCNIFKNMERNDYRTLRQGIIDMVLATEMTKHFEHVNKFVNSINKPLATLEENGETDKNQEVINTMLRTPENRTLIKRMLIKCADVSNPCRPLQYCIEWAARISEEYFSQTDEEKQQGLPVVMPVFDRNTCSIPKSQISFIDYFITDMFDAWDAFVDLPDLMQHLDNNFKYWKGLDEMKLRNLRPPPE

## COc1ccc(-c2cc(N3CCCC3)nc(/C=C/c3nc(-n4ccnc4)c4ccccc4n3)n2)cc1OC [Compound A, 2-{(E)-2-[4-(1-imidazolyl)-quinazolin-2-yl]}ethenyl-4-(3,4-dimethoxy)phenyl-6-(pyrrolidin-1-yl)pyrimidine]
[1]
  IC50: > 1000 nM
[2]
  occupancy of PDE10 binding in the brain: excellent PDE10 binding behaviors inside the brain
[2]; integration plot method
  brain uptake and penetration (rate PS through the BBB): good brain uptake and penetration characteristics
[3]
  effects of bromocriptine to alleviate symptoms (locomotor activity and motor disability score): had a tendency to enhance the effects of bromocriptine to alleviate symptoms
